# Assay results from US5219741A, “Method of making L-proline using an N-acyl-L-protine acylase” (priority 1990, dated 1993).
# “Also recorded” adds a separate entry of the source.
# Test system: N-acyl-L-proline acylase
# Experiment: Substrate specificity: hydrolysis of N-acyl amino acids and proline derivatives
# Type: biochemical, Comamonas testosteroni DSM 5416
# Details: not given
# Protocol: The activity of acylase was determined with various N-acetyl-L-amino acids and N-chloroacetyl-L-amino acids in a reaction batch with the following composition:
# The reaction temperature was 30° C. and the incubation time 15 minutes to 24 hours. 0.2 ml samples of the reaction batch in each instance were mixed at different times with 0.2 ml 10% (w/v) trichloroacetic acid and the denatured protein centrifuged off for 10 minutes at 11,000 rpms in a table centrifuge. The supernatant was diluted with a 0.1M Na citrate buffer pH 2.2 with 25% (v/v) 2.2-thiodiethanol and 0.1% (v/v) phenol 1:5 and 1:50 respectively. The amino acids released were quantitatively detected by an amino-acid analyzer LC 5001 of the firm Biotronic, Maintal, Federal Republic of Germany. In Table 16, the substrates marked with * and the corresponding products were quantified by means of HPLC.
# The activity of the acylase was determined with various proline derivatives as under a).
row,Structure (SMILES),Hydrolysis by the acylase (in words)
1,CC(=O)N[C@@H](C)C(=O)O [N-acetyl-L-alanine],hydrolyzes; also recorded: reacted at a distinctly lower speed
2,CC(=O)N1CCC[C@@H]1C(=O)O [N-acetyl-D-proline],not hydrolized
3,CSCC[C@H](NC(=O)CCl)C(=O)O [N-chloroacetyl-L-methionine],hydrolyzes; also recorded: reacted at a distinctly lower speed
4,CC(C)[C@H](NC(=O)CCl)C(=O)O [N-chloroacetyl-L-valine],hydrolyzes; also recorded: reacted at a distinctly lower speed

# Same assay, conditions: 20 mM substrate 1.0 ml in 2.0 ml batch, 30° C., pH 7.0; N-acetyl-L-proline = 100%; amino-acid analyzer
row,Structure (SMILES),Rel. activity (%)
1,O=C(CCl)N[C@@H](Cc1ccc(O)cc1)C(=O)O [ClAc--L--Tyr],1.0
2,CC(=O)N[C@@H](C)C(=O)O [N-acetyl-L-alanine],9.3
3,CC(C)C[C@H](NC(=O)CCl)C(=O)O [ClAc--L--Leu],1.9
4,CSCC[C@H](NC(=O)CCl)C(=O)O [N-chloroacetyl-L-methionine],17.1
5,CC(C)[C@H](NC(=O)CCl)C(=O)O [N-chloroacetyl-L-valine],14.1
6,O=C(CCl)N[C@@H](Cc1ccccc1)C(=O)O [ClAc--L--Phe],1.0

# Same assay, conditions: proline derivatives; 30° C., pH 7.0; N-acetyl-L-proline = 100%
row,Structure (SMILES),Relative Activity (%)
1,CC(=O)N1CCC[C@@H]1C(=O)O [N-acetyl-D-proline],0

# Test system: Comamonas testosteroni DSM 5416
# Experiment: Growth of the strain in culture medium (OD600)
# Type: cell-based
# Details: inductor 1 g/l + 4 g/l Na acetate; 24 hours
# Protocol: Strains which appeared uniform according to the colony morphology and the microscopic image were then cultivated in 100 ml liquid medium (500 ml Erlenmeyer flask with top and 4 lateral baffles) at 30° C. on a rotary agitator machine at 200 rpms. The culture medium had the following composition: […]
# (§1) The carbon source of the culture medium with a concentration of 4 g/l was varied and the influence on growth and acylase formation determined.
# (§2) The concentration of N-acetyl-L-proline was varied in a range of 1 g/l-5 g/l in steps of 1 g/l in the culture medium as described in Example 1.
# (§3) The concentration of (NH4)2 SO4 was varied in a range of 1 g/l-5 g/l in steps of 1 g/l in the culture medium as described in Example 1.
# (§4) The concentration of yeast extract was varied in a range of 1 g/l-5 g/l in steps of 1 g/l in the culture medium as described in Example 1.
# (§5) The N-acetyl-L-proline concentration was reduced to 0.2 to 1.0 g/l in the culture medium as described in Example 1 and 4 g/l Na acetate were additionally added.
# (§6) The method described above under f) was followed. However, the inductor, N-acetyl-L-proline, was not added to the nutrient medium until the late exponential growth phase after an incubation time of 12 hours.
# (§7) The method described above under f) was followed. In addition to N-acetyl-L-proline, various N-acetyl- and N-chloroacetyl amino acids were added to the nutrient medium in a concentration of 1 g/l.
row,Structure (SMILES),Growth (OD600)
1,O=C(CCl)N[C@@H](Cc1ccc(O)cc1)C(=O)O [ClAc--L--Tyr],2.76
2,CC(=O)N[C@@H](C)C(=O)O [N-acetyl-L-alanine],2.28
3,CC(C)C[C@H](NC(=O)CCl)C(=O)O [ClAc--L--Leu],2.65
4,CSCC[C@H](NC(=O)CCl)C(=O)O [N-chloroacetyl-L-methionine],2.19
5,CC(C)[C@H](NC(=O)CCl)C(=O)O [N-chloroacetyl-L-valine],2.50
6,O=C(CCl)N[C@@H](Cc1ccccc1)C(=O)O [ClAc--L--Phe],2.89

# Test system: N-acyl-L-proline acylase
# Experiment: not given
# Type: biochemical, Comamonas testosteroni DSM 5416
# Details: chemical agent 1 mM; 10 min pre-incubation at 30° C.; no agent = 100
# Protocol: (§8) The enzymatic reaction was interrupted by pipetting 50 μl of the enzyme sample into 1.25 ml 100% acetic acid. Subsequently, 0.45 ml 0.1M tris-HCl buffer pH 7.0 and 1.25 ml ninhydrin reagent (3 g ninhydrin dissolved by heating in a mixture of 60 ml 100% acetic acid and 40 ml 6M phosphoric acid) were added. The ninhydrin reagent was freshly prepared daily. The test tubes were loosely closed with screw-on caps, incubated 30 minutes at 100° C. and subsequently cooled down in an ice bath.
# (§9) The L-proline, liberated by the enzymatic hydrolysis, forms a red dye with ninhydrin at 100° C. The absorption of the red dye was measured in a spectrophotometer at 480 nm relative to a control batch without crude extract (=substrate blank). The concentration of the L-proline produced was determined using a straight calibration line with L-proline in a range of 5 to 100 nmoles per 50 μl specimen. The enzyme activity was indicated in international units; thus, one unit (U) corresponded to an amount of 1 μmole L-proline produced per minute.
# The influence of various chemical agents as well as metal cations and anions on the reaction speed of the hydrolytic splitting of N-acetyl-L-proline was determined at 30° C. in a reaction batch with the following composition: […]
# The enzyme was pre-incubated for 10 minutes at 30° C. with the compound before the addition of substrate to start the reaction.
# The enzyme was pre-incubated for 10 minutes at 30° C. with the agent before the substrate was added to start the reaction.
# The enzyme was pre-incubated 10 minutes at 30° C. with the agent before the substrate was added to start the reaction. The concentration of the anions was 10 mM in each instance.
row,Structure (SMILES),Activity (%)
1,"c1cnc2c(c1)ccc1cccnc12 [1,10 phenanthroline, 1,10-phenanthroline]",27

# Same assay, conditions: chemical agent 10 mM; 10 min pre-incubation at 30° C.; no agent = 100
row,Structure (SMILES),Activity (%)
1,"c1cnc2c(c1)ccc1cccnc12 [1,10 phenanthroline, 1,10-phenanthroline]",1

# Same assay, conditions: metal cation salt 1 mM; native enzyme; no agent = 100
row,Structure (SMILES),Activity (%)
1,[Cl][Fe]([Cl])[Cl] [FeCl3],83
2,[Cl][Mn][Cl] [MnCl2],104
3,[Ca+2].[Cl-].[Cl-] [CaCl2],100
4,[Cl-].[Cl-].[Sr+2] [SrCl2],104
5,[Cl-].[Cl-].[Co+2] [CoCl2],103
6,[Cl][Hg][Cl] [HgCl2],67
7,O=[N+]([O-])[O-].O=[N+]([O-])[O-].[Ni+2] [Ni(NO3)2],94
8,[Ba+2].[Cl-].[Cl-] [BaCl2],100
9,O=S(=O)([O-])[O-].[Cu+2] [CuSO4],61
10,[Cl][Sn][Cl] [SnCl2],72
11,[Cl-].[Cl-].[Mg+2] [MgCl2],106
12,[Cl][Cd][Cl] [CdCl2],89
13,O=S(=O)([O-])[O-].[Fe+2] [FeSO4],20
14,O=S(=O)([O-])[O-].[Zn+2] [ZnSO4],77

# Same assay, conditions: metal cation salt 10 mM; native enzyme; no agent = 100
row,Structure (SMILES),Activity (%)
1,[Cl][Fe]([Cl])[Cl] [FeCl3],58
2,[Cl][Mn][Cl] [MnCl2],103
3,[Ca+2].[Cl-].[Cl-] [CaCl2],91
4,[Cl-].[Cl-].[Sr+2] [SrCl2],100
5,[Cl-].[Cl-].[Co+2] [CoCl2],92
6,[Cl][Hg][Cl] [HgCl2],9
7,O=[N+]([O-])[O-].O=[N+]([O-])[O-].[Ni+2] [Ni(NO3)2],75
8,[Ba+2].[Cl-].[Cl-] [BaCl2],99
9,O=S(=O)([O-])[O-].[Cu+2] [CuSO4],19
10,[Cl][Sn][Cl] [SnCl2],55
11,[Cl-].[Cl-].[Mg+2] [MgCl2],99
12,[Cl][Cd][Cl] [CdCl2],65
13,O=S(=O)([O-])[O-].[Zn+2] [ZnSO4],32

# Same assay, conditions: native enzyme
row,Structure (SMILES),Influence on the acylase activity (in words)
1,[Cl][Hg][Cl] [HgCl2],inhibiting action
2,O=S(=O)([O-])[O-].[Cu+2] [CuSO4],inhibiting action
3,[Cl][Sn][Cl] [SnCl2],inhibiting action
4,"c1cnc2c(c1)ccc1cccnc12 [1,10 phenanthroline, 1,10-phenanthroline]",inhibiting action; also recorded: significantly inhibit
5,[Cl][Cd][Cl] [CdCl2],inhibiting action
6,O=S(=O)([O-])[O-].[Zn+2] [ZnSO4],inhibiting action

# Test system: N-acyl-L-proline acylase formation in Comamonas testosteroni DSM 5416
# Experiment: Acylase formation: specific activity of N-acyl-L-proline acylase in crude extract
# Type: cell-based
# Details: inductor 1 g/l + 4 g/l Na acetate; 24 hours
# Protocol: After 24 to 48 hours, the cell-containing nutrient medium was centrifuged (15 min., 4,500 g in a cooling centrifuge), the cells were washed twice with 0.9% (w/v) NaCl solution and resuspended in 10 ml 0.1M tris-HCl buffer, pH 7.0.
# The microorganisms of this suspension were macerated by ultrasound treatment (Sonifier-Cell Disrupter B-30 of the firm Branson Sonic Power Co., Danbury, Conn., USA) (2 minutes pulsating, corresponding to 1 minute of pure ultrasonic radiation. The cell fragments and non-macerated cells were centrifuged in a cooled centrifuge 30 minutes at 40,000 g and 5° C. The clear supernatant (=crude extract) was used in an enzyme test.
# The reaction was started by adding crude extract and the reaction batches customarily incubated for 10 minutes at 30° C. The incubation time and the amount of crude extract were selected so that the linearity range of the enzymatic reaction and of the subsequent proline detection were not exceeded.
# as §8, §9
# The protein determination was carried out with a protein-determination kit of the firm Pierce Chemical Co., Rockford, Ill., USA, according to Bradford, Anal. Biochem. 72, pp. 248-254 (1976).
# as §1, §2, §3, §4, §5, §6, §7
row,Structure (SMILES),Spec. activity (U/mg)
1,O=C(CCl)N[C@@H](Cc1ccc(O)cc1)C(=O)O [ClAc--L--Tyr],< 0.01
2,CC(=O)N[C@@H](C)C(=O)O [N-acetyl-L-alanine],< 0.01
3,CC(C)C[C@H](NC(=O)CCl)C(=O)O [ClAc--L--Leu],< 0.01
4,CSCC[C@H](NC(=O)CCl)C(=O)O [N-chloroacetyl-L-methionine],< 0.01
5,CC(C)[C@H](NC(=O)CCl)C(=O)O [N-chloroacetyl-L-valine],< 0.01
6,O=C(CCl)N[C@@H](Cc1ccccc1)C(=O)O [ClAc--L--Phe],< 0.01

# Test system: 1,10-phenanthroline-inactivated acylase (apoenzyme)
# Experiment: Influence of cations on the 1,10-phenanthroline-inactivated acylase
# Type: biochemical, Comamonas testosteroni DSM 5416
# Details: 1,10-phenanthroline-inactivated acylase
# Protocol: FPLC/Mono Q purified enzyme was incubated for 24 hours at 4° C. in the presence of 1 mM 1,10-phenanthroline. Subsequently, enzyme and the chelating agent 1,10-phenanthroline were separated by gel filtration via Sephadex G-25M (PD-10, firm Pharmacia/LKB, Uppsala, Sweden). The enzyme-containing fractions were combined and the activity determined without and in the presence of various cations (1 mM).
row,Structure (SMILES),Influence on the apoenzyme (in words)
1,[Cl-].[Cl-].[Co+2] [CoCl2],activating action
2,[Cl][Hg][Cl] [HgCl2],inhibited
3,O=S(=O)([O-])[O-].[Cu+2] [CuSO4],inhibited
4,[Cl][Sn][Cl] [SnCl2],inhibited
5,O=S(=O)([O-])[O-].[Zn+2] [ZnSO4],activating action

# Same assay, conditions: enzyme incubated 24 hours at 4° C. with 1 mM 1,10-phenanthroline, before gel filtration; native enzyme = 100
row,Structure (SMILES),Activity (%)
1,"c1cnc2c(c1)ccc1cccnc12 [1,10 phenanthroline, 1,10-phenanthroline]",2

# Same assay, conditions: inactivated enzyme after gel filtration + cation 1 mM; native enzyme = 100, no agent = 21
row,Structure (SMILES),Activity (%)
1,[Cl][Fe]([Cl])[Cl] [FeCl3],5
2,[Cl][Mn][Cl] [MnCl2],23
3,[Ca+2].[Cl-].[Cl-] [CaCl2],17
4,[Cl-].[Cl-].[Sr+2] [SrCl2],23
5,[Cl-].[Cl-].[Co+2] [CoCl2],80
6,[Cl][Hg][Cl] [HgCl2],6
7,O=[N+]([O-])[O-].O=[N+]([O-])[O-].[Ni+2] [Ni(NO3)2],21
8,[Ba+2].[Cl-].[Cl-] [BaCl2],18
9,O=S(=O)([O-])[O-].[Cu+2] [CuSO4],6
10,[Cl][Sn][Cl] [SnCl2],10
11,[Cl-].[Cl-].[Mg+2] [MgCl2],25
12,[Cl][Cd][Cl] [CdCl2],20
13,O=S(=O)([O-])[O-].[Fe+2] [FeSO4],12
14,O=S(=O)([O-])[O-].[Zn+2] [ZnSO4],54

# Test system: N-acyl-L-proline acylase
# Experiment: Stereospecificity of hydrolysis of N-acetyl-D,L-proline
# Type: biochemical, Comamonas testosteroni DSM 5416
# Details: not given
# Protocol: The hydrolysis of N-acyl-L-proline, N-acetyl-D,L-proline and N-acetyl-D-proline was determined in the following reaction mixture:
# The reaction mixture was incubated for two hours at 30° C. and the L-proline produced was determined by amino acid analysis as in Example 10.
row,Structure (SMILES),Stereospecific hydrolysis (in words)
1,CC(=O)N1CCC[C@@H]1C(=O)O [N-acetyl-D-proline],not

# Same assay, conditions: substrate 10 mmol/l; two hours at 30° C., pH 7.0
row,Structure (SMILES),L-proline (mmol/l) produced [mmol/L]
1,CC(=O)N1CCC[C@@H]1C(=O)O [N-acetyl-D-proline],< 0.01
2,"CC(=O)N1CCCC1C(=O)O (racemic) [N-acetyl-D,L-proline]",4.82
